Experimental data as given in PubChem BioAssay AID1963837 (Molecular Pharmacology Branch, DTP, NCI, 2024).
Where “and” joins values, the source holds several entries; their conditions need not be identical. Identical values can stand only once.

System: 843126-344-R-J1-PDC complex spheroid viability
Experiment: Anticancer human tumor 843126-344-R-J1-PDC patient-derived melanoma cell line growth inhibition [POLQ]
Details: for viability, T/C: stronger effect = lower value; for IC50: curve of compound
Protocol: Multicellular complex tumor spheroid response to Polymerase (POL) inhibitors (novobiocin, ART-558, RP6685) in combination with a variety of drugs and investigational agents in selected tumor cell lines
The POL inhibitors (novobiocin, ART-558, and RP6685) were evaluated both individually and in combination with standard of care and investigational anticancer small molecules within a complex spheroid model of solid tumors. . Complex spheroids include a stromal component modeled by human endothelial cells (HUVEC) and fibroblasts modeled by human mesenchymal stem cells (MSCs). The concentration ranges selected for each drug and investigational agent were based upon clinically achievable concentrations if the clinical Cmax of the agent was known.
Compounds. The drugs and investigational agents: novobiocin (NSC847541), ART-558 (NSC835418), RP-6685 (NSC848927), peposertib (NSC802822), ceralasertib (NSC780249), elimusertib (NSC800525), camonsertib (NSC841442), AZD-1390 (NSC803789), olaparib (NSC753686), talazoparib (NSC767125), rucaparib (NSC756644), sotorasib (NSC818433), MRTX-1133 (NSC836407), SN-38 (NSC673596), topotecan (NSC609699), epotoside (NSC141540), doxorubicin (NSC123127), gemcitabine (NSC613327), 5-fluorouracil (NSC19893), paclitaxel (NSC125973), vemurafenib (NSC761431), MSA-2 (NSC828583), SN-011 (NSC837082), adavosertib (NSC754352), prexasertib (NSC758257), carboplatin (NSC241240) and oxaliplatin (NSC266046), were obtained from the National Cancer Institute (NCI) Developmental Therapeutics Program Chemical Repository (21). The FDA-approved anticancer drug set is available from the Developmental Therapeutics Program at https://dtp.cancer.gov/organization/dscb/obtaining/. […] The stock solutions were prepared in dimethyl sulfoxide (DMSO, Sigma-Aldrich, St. Louis, MO, cat. D2650), except for the platinum compounds which were prepared in saline (Quality Biological, Gaithersburg, MD, cat. 114-055-101), at 800-fold the tested concentration and stored at -70 degrees C prior to their use. All drugs and investigational agents were tested over a range starting from a high concentration at or near the clinical Cmax and decreasing in half-log increments. If the clinical Cmax for an agent had not been determined, the highest concentration tested was 10 microM, except for SN-38, which was tested at a high concentration of 1 microM.
Cell Culture. All cells were maintained in an incubator at 37 degrees C and 5% CO2 with 95% humidity. The PDC lines were cultured according to standard operating procedures established by the NCI PDMR (https://pdmr.cancer.gov). Table 3 of the manuscript, lists the cell lines along with the number of the three cell types plated to form the mct-spheroids and media for tumor cell growth. After thawing, all PDC lines, except 997537-175-T-J1-PDC and 415267-285-R-J2-PDC, were cultured in Matrigel-coated flasks prepared with a working solution of 1X Ham's F-12 nutrient mix, without supplementation (Thermo Fisher Scientific, cat. 11765054), 100 U/mL penicillin-streptomycin (Thermo Fisher Scientific, cat. 15140122), and 2.5% Matrigel (Corning Inc., Corning, NY, cat. 354248) for the first three passages. The two PDC lines 997537-175-T-J1-PDC and 415267-285-R-J2-PDC were cultured on uncoated flasks. The 857933-349-R-J2-PDC line was cultured in 6C/Colon 1B media containing advanced DMEM/F-12 (Thermo Fisher Scientific, cat. 12634028), 10 mM HEPES (Thermo Fisher Scientific, cat. 15630080), 1X GlutaMAX supplement (Thermo Fisher Scientific, cat. 35050061), 0.1 mg/mL primocin (InvivoGen, San Diego, CA, cat. ant-pm-2), 10% defined fetal bovine serum, heat inactivated (HyClone Laboratories Inc., Logan, UT, cat. SH30070.03HI), 50% L-WRN conditioned media (ATCC, cat. CRL-3276), 1.25 mM N-Acetyl-L-cysteine (Sigma-Aldrich, cat. A9165), 10 mM nicotinamide (Sigma-Aldrich, cat. N0636), 1X B-27 supplement (Thermo Fisher Scientific, cat. 17504044), 1X N-2 supplement (Thermo Fisher Scientific, cat. […]
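For viability, T/C in this document: spheroids exposed to drugs for seven days before readout.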

SMILES	viability, T/C (compound 0.0316 µM)	viability, T/C (compound 0.1 µM)	viability, T/C (compound 0.316 µM)	viability, T/C (compound 1 µM)	viability, T/C (compound 3.16 µM)	viability, T/C (compound 10 µM)	IC50	viability, T/C (compound 0.00316 µM)	viability, T/C (compound 0.01 µM)
COc1ccc([C@@H](O)c2cc(-c3ncnc4cc(N5CCOCC5)ccc34)c(F)cc2Cl)nn1	103% and 80.6% and 95.7%	84.7% and 89.8% and 74.2%	92.1% and 102% and 93.4%	112% and 87.3% and 81.3%	86.4% and 73.3% and 59.9%	66.4% and 71.2% and 48.2%	> 10000 nM and 8430 nM	–	–
COc1cccc(OCCCN)c1-c1cc(Nc2cnc(C#N)cn2)n[nH]1	59% and 60.4% and 62.1%	49.5% and 47.9% and 49.9%	47.6% and 47.8% and 44.3%	35.3% and 32.9% and 35.2%	–	–	109 nM and 86.4 nM and 114 nM	97.4% and 92.9% and 79.1%	79.3% and 86.4% and 75.8%
